Laboratory results from patent publication US20060276414A1, “Use of compositions comprising an estrogenic component for the treatment and prevention of musculoskeletal pain” (priority 2003, published 2006).

What was measured:
[1] = system: early breast cancer in postmenopausal women; conditions: 9366 patients; cited from earlier work
[2] = system: DMBA-induced mammary tumours; assay: 7,12-dimethyl-benz(a)anthracene (DMBA)-induced tumour model in rats; assay type: in vivo, Sprague-Dawley rats
Procedure: In order to assess the effect of the present estrogenic substances on tumours, estetrol was tested in the 7,12-dimethyl-benz(a)anthracene (DMBA)-induced tumour model in rats. This model, originally developed by Huggins et al.,1961 (Nature,19, 204-207), has been widely used and is a generally accepted model with predictive value for anti-tumour agents in humans. The growth of the DMBA-induced tumours is dependent on endogenously produced estradiol or exogenously administered estrogens and prolactin (Sylvester et al., 1982, Cancer Research, 42, 4943-4947).
Eighty-four female Sprague-Dawley rats (Harlan, The Netherlands) were group housed, maintained in a 12-hr light/dark environment, and fed a Soya Free Diet (SDS England) and water ad libitum. Animals were weighed on a weekly basis. One week prior to induction of mammary carcinoma, 12 animals (aged 43 days) were surgically castrated via removal of the ovaries. At the age of 50 days, all animals were administered a single oral dose of 16 mg DMBA to induce tumour development. Animals were subsequently allocated to one of seven groups (n=12), receiving placebo or treatment as follows:. • Group 1 animals received placebo oral treatment with 3.0 ml/kg/day vehicle (20% wt/vol solution of hydroxypropyl-beta-cyclodextrin in water); • Group 2 surgically castrated animals received placebo treatment with 3.0 ml/kg/day vehicle; • Group 3 animals received the anti-estrogen tamoxifen given orally at a single daily dose of 3 mg/kg; • Group 4 animals received ethinylestradiol (EE) orally at a single daily dose of 0.025 mg/kg; • Group S animals received ethinylestradiol (EE) orally at a single daily dose of 0.125 mg/kg; • Group 6 animals received estetrol (E4) orally at a single daily dose of 0.5 mg/kg; and • Group 7 animals received estetrol (E4) orally at a single daily dose of 2.5 mg/kg.
During the treatment period of 8 weeks, the emergence of palpable tumours and number of tumours were determined weekly. At 8 weeks, at necropsy, final measurements were taken. The number of tumours at necropsy are depicted in FIG. 1.

[3] = system: DMBA-induced mammary tumours; conditions: literature (Hollingsworth et al., 1998); cited from earlier work
[4] = system: tumour gene expression profile and musculoskeletal pain in postmenopausal breast cancer patients; assay: Example 4: placebo-controlled cross-over study with fine needle aspiration, postmenopausal breast cancer patients (at least stage III); assay type: in vivo, human patients; conditions: for average musculoskeletal pain sensation value during treatment weeks, vs placebo: 6 weeks
Text: 20 postmenopausal patients are recruited that have breast cancer in at least clinical staging […], have a palpable macroscopic tumour mass, show estrogen receptor positive tumour histology, have already been treated with either an anti-estrogen or an aromatase inhibitor for at least three months, do no have contraindications for steroid therapy and suffer from musculoskeletal pain complaints (defined as skeletal pain, pain in the legs, arms or back). Furthermore, during the screening phase other diagnoses, such as rheumatoid arthritis and/or other skeletal diseases or joint diseases, are excluded.
(§1) The patients participate in a clinical study with a duration of 15 weeks and are randomized as follows:
(§2) Patients continue with the anti-estrogen treatment they have been receiving previously during the entire period of the study and receive additional daily oral treatment with 4 mg estetrol or a placebo for six weeks. 5 patients start with 4 mg/day oral estetrol treatment and 5 patients with placebo treatment. After a wash-out period of 3 weeks, during which anti-estrogen treatment continues and no additional estetrol or placebo treatment is given, study treatment is reinitiated. Placebo-receiving patients are subsequently treated with 4 mg/day oral estetrol and estetrol-receiving patients with placebo for 6 weeks after which the study is terminated.
as §2, with “aromatase inhibitor” for “anti-estrogen”
The patients visit the study center once weekly, during which the patients are closely monitored by their study physician. During all visits, thorough physical examinations are performed, blood samples are retrieved and a questionnaire, specifically addressing musculoskeletal pain sensation on a graded scale, is completed. Furthermore, three fine needle aspirations (FNA) from the macroscopic tumour are obtained at baseline, during the wash-out and at the last visit after study week 15, respectively. Additionally at the same time points and for all locations with macroscopic palpable tumour activity, tumour sizes are scored. Tumour gene expression profiles are determined by using a FNA-cDNA microarray as described by Sotiriou et al. (Breast Cancer Research 2002,4:R3). Primary endpoints in the study are changes of the gene expression profile, improvement of the musculoskeletal pain and reduction of climacteric complaints, whereas secondary endpoints are clinical tumour progression and changes of tumour markers.

[5] = system: musculoskeletal pain in postmenopausal breast cancer patients; assay: Example 2: placebo-controlled cross-over study, postmenopausal breast cancer patients (stage I or II) on estrogen suppressant therapy; assay type: in vivo, human patients; conditions: for average musculoskeletal pain sensation value during treatment weeks, vs placebo: 4 mg/day oral estetrol, 6 weeks
Text: 20 postmenopausal patients are recruited that have breast cancer in clinical staging I or II, are adequately being treated surgically, chemotherapeutically and/or radiotherapeutically, show estrogen receptor positive tumour histology and do no have contraindications for steroid therapy, are on treatment with either an anti-estrogen or an aromatase inhibitor for at least three months and suffer from musculoskeletal pain complaints (defined as skeletal pain, pain in the legs, arms or back). Furthermore, during the screening phase other diagnoses, such as rheumatoid arthritis and/or other skeletal diseases or joint diseases, are excluded.
as §1
as §2, with “anti-estrogen treatment that they have” for “anti-estrogen treatment they have”
Patients continue with the aromatase inhibitor treatment that they have been receiving previously during the entire period of the study and receive additional daily oral treatment with 4 mg estetrol or a placebo for six weeks. 5 patients start with 4 mg/day oral estetrol treatment and 5 patients with placebo treatment. After a wash-out period of 3 weeks, during which aromatase inhibitor treatment continues and no additional estetrol or placebo treatment is given, study treatment is reinitiated. Placebo-receiving patients are subsequently treated with 4 mg/day oral estetrol and estetrol-receiving patients with placebo for 6 weeks after which the study is terminated.
The subjects visit the study center once weekly, during which the patients are closely monitored by their study physician. During all visits, thorough physical examinations are performed, blood samples are retrieved and a questionnaire, specifically addressing musculoskeletal pain sensation on a graded scale and climacteric complaints, is completed. Primary endpoints in the study are improvement of the musculoskeletal pain and reduction of climacteric complaints, whereas secondary endpoints are clinical tumour progression and changes of tumour markers.

[6] = system: bone resorption, hot flushing and vaginal cornification; assay: agonistic models of in vivo estrogenicity (previous studies); conditions: data from previous studies
Procedure: The doses of EE and E4 were based on data from previous studies, showing equipotency of 0.025 mg/kg/day EE and 0.5 mg/kg/day E4 in agonistic models of preventing bone resorption, prevention of hot flushing and vaginal comification.

[7] = system: musculoskeletal pain in premenopausal breast cancer patients; assay: Example 3: placebo-controlled cross-over study, premenopausal breast cancer patients on estrogen suppressant therapy; assay type: in vivo, human patients; conditions: premenopausal patients with ovarian ablation, estetrol plus estrogen suppressant
[8] = 4 mg/day oral estetrol added to estrogen suppressant therapy

## CC(C)(C#N)c1cc(Cn2cncn2)cc(C(C)(C)C#N)c1 [anastrozole]
[1]
  disease-free survival and incidence of contralateral breast cancer, compared with tamoxifen: significantly superior

## CC/C(=C(\c1ccccc1)c1ccc(OCCN(C)C)cc1)c1ccccc1 [tamoxifen, reference compound]
[2]; tamoxifen 3 mg/kg/day orally, 8 weeks, DMBA-treated female rats
  development of mammary tumours (number of tumours at necropsy): inhibiting the development of mammary tumours
[3]
  anti-tumour treatment in the DMBA model: effective anti-tumour treatments

## C[C@]12CC[C@@H]3c4ccc(O)cc4CC[C@H]3[C@@H]1[C@@H](O)[C@@H](O)[C@@H]2O [estetrol, 1,3,5 (10)-estratrien-3,15α,16α,17β-tetrol]
[2]; E4 2.5 mg/kg/day orally vs tamoxifen 3 mg/kg/day orally
  preventing growth of DMBA-induced tumours, compared with tamoxifen: as effective as tamoxifen
[2]; E4 2.5 mg/kg/day orally, 8 weeks, DMBA-treated female rats
  mammary tumour development (number of tumours at necropsy): markedly suppressed mammary tumour development
[4]; [8]
  climacteric complaints (questionnaires): overall reduction
[4]; 4 mg/day oral estetrol plus anti-estrogen or aromatase inhibitor
  molecular profile on concomitant administration with an anti-estrogen or an aromatase inhibitor: synergistically produces a more beneficial molecular profile
[4]; 4 mg/day oral estetrol, concomitant anti-estrogen therapy
  average musculoskeletal pain sensation value during treatment weeks, vs placebo: significantly lower
[4]; 4 mg/day oral estetrol, concomitant aromatase inhibitor therapy
  average musculoskeletal pain sensation value during treatment weeks, vs placebo: significantly lower
[4]; 4 mg/day oral estetrol, FNA-cDNA microarray
  changes in the gene-expression profile involved in regulation and deregulation of breast tissue proliferation: favourable association
[4]; additional estetrol treatment, vs baseline and progression data for stages III and more
  tumour progression / sizes of macroscopic tumours: tumours progress more slowly or sizes of macroscopically tumours decline
[5]; [8]
  climacteric complaints (questionnaires): overall reduction
[5]; concomitant anti-estrogen therapy
  average musculoskeletal pain sensation value during treatment weeks, vs placebo: significantly lower
[5]; concomitant aromatase inhibitor therapy
  average musculoskeletal pain sensation value during treatment weeks, vs placebo: significantly lower
[5]; during treatment with estetrol, vs baseline and recurrency data for stages I and II
  clinical tumour progression and tumour markers: do not show significant adverse changes
[6]; 0.5 mg/kg/day E4 vs 0.025 mg/kg/day EE
  equipotency with EE in preventing bone resorption, prevention of hot flushing and vaginal cornification: equipotency
[6]; 2.5 mg/kg/day E4 vs 0.125 mg/kg/day EE
  equipotency with EE in in vivo estrogenicity (preventing bone resorption, hot flushing, vaginal cornification): equipotency
[7]
  clinical outcome (musculoskeletal pain) compared with postmenopausal patients: similar-to the clinical outcome reported for postmenopausal breast cancer patients
